Consider one molecule from patent US20190345478A1, “T[…] AND SYSTEMS FOR DIAGNOSIS AND TREATMENT OF MALARIA” (WILLIAM MARSH RICE UNIVERSITY, priority 2012, published 2019).

For the assay, the system named is Plasmodium falciparum (strain 3D7). The assay is described as follows: Parasiticidal effect: level of parasitemia (percentage of MIRBCs) after bulk flow treatment of P. falciparum-infected human RBCs. The following applies: chloroquine 1 μM added immediately prior to flow treatment; PTNB mode 70 ps laser pulse; level of MIRBCs at 24 hours; FIG. 12c. Format: cell-based.

`CCN(CC)CCCC(C)Nc1ccnc2cc(Cl)ccc12` (stereo not shown) [chloroquine]: the “parasiticidal efficacy of PTNB mode compared with chloroquine” value is reported as “three-fold higher parasiticidal efficacy than chloroquine”.
